Source: US4968697A, “2-substituted adenosine 5'-carboxamides as antihypertensive agents” (Ciba-Geigy Corporation, priority 1989, dated 1990)
Where a name gives a salt, the structure may show the parent alone.

Legend:
[1] = test system: normotensive rat; assay: blood pressure lowering effect in normotensive rats (i.v.); type: in vivo; conditions: iv, read-out: dose that lowers blood pressure (as low as)
Description: (§1) Indicative of in vivo adenosine receptor agonist activity, the hypotensive activity of the compounds of the invention as well as their effect on heart rate can be measured in normotensive or spontaneous hypertensive rats on intravenous or oral administration.
Typically, the blood pressure lowering effect in normotensive rats can be determined as follows:
Adult male rats weighing 300-400 g are anesthetized using Inactin (100 mg/kg, i.p.). A femoral artery and contralateral vein are cannulated for direct blood pressure measurement and i.v. drug administration, respectively. Animals are allowed a 15 minute equilibration period before testing. Vehicle (1 ml/kg, i.v.) is administered over a 30 second period followed by a 0.3 ml saline flush administered over a 30 second period. Changes in diastolic blood pressure are recorded using a Beckman polygraph while heart rate is recorded as a derivative of the blood pressure pulse. The test compound is administered in the same manner as vehicle and a dose response curve is established. Percent changes in heart rate and blood pressure are recorded.

[2] = test system: spontaneous hypertensive rat; assay: blood pressure lowering effect in the spontaneous hypertensive rat (oral); type: in vivo; conditions: p.o., read-out: dose that lowers blood pressure (as low as)
Description: as §1
The blood pressure lowering effect in the spontaneous hypertensive rat is determined on oral administration.

[3] = molecular target: T1, adenosine-2 (A-2) receptor (Rattus norvegicus, UniProt P30543); assay: in vitro adenosine-2 (A-2) receptor binding: inhibition of specific 3H-NECA binding in rat striatal membranes; set-up: species or system male Sprague-Dawley rats; conditions: 4 nM 3H-NECA, in presence of 50 nM cyclopentyladenosine
T1 construct: striatal membrane preparations from corpus striatum of male Sprague-Dawley rats; from tissue; host or cells: corpus striatum membranes of male Sprague-Dawley rats
T1 sequence (P30543 whole entry): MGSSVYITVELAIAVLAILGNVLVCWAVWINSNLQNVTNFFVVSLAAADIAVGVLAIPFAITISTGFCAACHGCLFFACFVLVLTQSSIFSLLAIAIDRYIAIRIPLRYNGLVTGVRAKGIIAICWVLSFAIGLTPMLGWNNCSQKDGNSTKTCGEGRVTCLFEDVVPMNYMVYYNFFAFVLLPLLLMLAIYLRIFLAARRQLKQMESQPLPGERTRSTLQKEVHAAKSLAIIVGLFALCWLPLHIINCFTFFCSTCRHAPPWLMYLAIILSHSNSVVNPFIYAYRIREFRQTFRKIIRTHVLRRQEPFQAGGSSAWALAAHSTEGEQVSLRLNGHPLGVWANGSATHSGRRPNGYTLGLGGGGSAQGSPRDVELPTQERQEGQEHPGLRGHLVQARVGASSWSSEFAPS
Description: The concentration of a particular compound required to displace the specific binding of 4 nM ^3 H-NECA is determined in the presence of 50 nM cyclopentyladenosine.

`CCNC(=O)[C@H]1O[C@@H](n2cnc3c(N)nc(NCCc4ccc(CCC(=O)O)cc4)nc32)[C@H](O)[C@@H]1O` [Example 2g, 2-[p-(2-carboxyethyl)-2-phenethylamino]-adenosine5'-(N-ethyl)-carboxamide] showed a minimal effective dose [1] of roughly 0.005 mg/kg and a minimal effective dose [2] of roughly 3 mg/kg.

`CCNC(=O)[C@H]1O[C@@H](n2cnc3c(N)nc(NCCC4CCCCC4)nc32)[C@H](O)[C@@H]1O` [Example 2n, 2-(2-cyclohexylethylamino)-adenosine-5'-(N-ethyl)carboxamide hydrochloride] gave an IC50 [3] of roughly 13 nM.
